The subject of series [1] is nerve cells in the hippocampal CA1 region. The experiment in a line: Effect on ischemic disorder of the brain: bilateral common carotid artery occlusion, nerve cell counts in hippocampal CA1 region. It counts as in vivo. Conditions: gerbil, 10 min ischemia, 100 mg/kg intraperitoneally 15 min before ischemia, immediately after reperfusion, then once daily, counted 5 days after reperfusion; for ischemia-induced decrease in the number of normal nerve cells in the hippocampal CA1 region: FIG. 1; for ischemia-induced increase in the number of apoptotic nerve cells in the hippocampal CA1 region: FIG. 2. Here is the method: The bilateral common carotid arteries of gerbils (male, body weights 60-80 g) were exposed under ether anesthesia. Then, in a conscious state, the carotid arteries were occluded with aneurysm clips to arrest the blood flow for 10 minutes. Ischemia was confirmed by checking the arrest of retinal blood flow with a blood flow meter (Advance laser flow meter (ALF21N), Advance Co. Ltd.) and observation of ischemic symptoms such as seizure, circling, and ptosis. After removal of the clips, reperfusion was confirmed with the blood flow meter. Five days after reperfusion, the animal was anesthetized with ether and was perfused with saline through the left ventricle for removal of blood and further with 4% formaldehyde for fixation of the brain tissue. The tissue was embedded in paraffin and thin sections were prepared and stained with hematoxylin-eosin in the routine manner. The nerve cells in the hippocampal CA1 region were observed under a light microscope and the normal nerve cells remaining in a 1.0 mm span of the hippocampal CA1 region were counted. Separately, using Apoptosis in situ Detection Kit Wako (Wako Pure Chemical Ind., Ltd.), the apoptosis in the paraffin-embedded brain tissue specimen was detected and using the light microscope, the apoptotic nerve cells per 1.0 mm span of the hippocampal CA1 region were counted.
In the normal group, the common carotid arteries were exposed but no ischemia was introduced. As the test drug, a parenteral suspension prepared as in Example 3 was administered intraperitoneally in a dose of 100 mg Compound 1 per kg body weight 15 minutes before ischemia, immediately after reperfusion, and thereafter once daily (Compound 1 administration group). In the control group and normal group, the vehicle used in Example 3 was similarly administered. As a positive control, Cbz-Val-Phe-H [MDL; S. C. Hong et al., Stroke, 25 (3), 663-669 (1994)], 100 mg/kg body weight, was similarly administered (MDL administration group).

In series [2] the test system is cytopathy due to cerebral ischemia. To be noted: rats, administered intravenously; cited from earlier work.
Series [3] has as its system neurons. To be noted: directly administered into the animal cerebral ventricle; cited from earlier work.
Series [4] has as its system neurons. To be noted: administered intraperitoneally; cited from earlier work.
Series [5] is described as follows: Toxicity study, single oral dose, 14-day observation. To be noted: rat, oral 1000 mg/kg. The format is in vivo, Wister rats. How it is done:
Five-week-old Wister rats (male, body weights 80-105 g) were orally given a 3.3 w/v % suspension of Compound 1 in 0.5 w/v % carboxymethylcellulose in a dose of 1000 mg as Compound 1 per kg body weight. […] Body weights were recorded before dosing and once daily for 14 days after dosing. Autopsy was performed after sacrifice by exsanguination under ether anesthesia after 14 days and the organs were grossly examined. The control group received 0.5 w/v % carboxymethylcellulose.

Non-standard residues stand in square brackets, D forms with d. Residues, ends and D or L forms follow the SMILES beside them. *: point of attachment. Nle = CCCC[C@H](N)C(=O)O; Cbz = O=C(OCc1ccccc1)*

Take `CC(C)[C@H](NC(=O)OCc1ccccc1)C(=O)N[C@H](C=O)Cc1ccccc1` [MDL, Cbz-Val-Phe-H] (Cbz-Val-Phe-aldehyde): in series [1], the “ischemia-induced decrease in the number of normal nerve cells in the hippocampal CA1 region” value is “little inhibitory effect” and the “ischemia-induced increase in the number of apoptotic nerve cells in the hippocampal CA1 region” value was “little inhibitory effect”. The “cytopathy due to cerebral ischemia” value in series [2] is “inhibited cytopathy”.

Regarding `CC(=O)N[C@@H](CC(C)C)C(=O)N[C@@H](CC(C)C)C(=O)N[C@H](C=O)CCCNC(=N)N` [leupeptin], the “protection of neurons against damage by cerebral ischemia” value in series [3] is recorded as “protects neurons against damage”.

In the case of `CCCC[C@@H](C=O)NC(=O)[C@H](CC(C)C)NC(=O)[C@H](CC(C)C)NC(C)=O` [calpain inhibitor I] (Ac-Leu-Leu-[Nle]-aldehyde), the “protection of neurons from excitotoxic factors” value in series [4] is reported as “protect neurons from excitotoxic factors”.

On to `CC(C)C[C@@H](C=O)NC(=O)[C@@H](NS(=O)(=O)c1ccc(F)cc1)C(C)C` [Compound 1, N-(4-fluorophenylsulfonyl)-L-valyl-L-leucinal], for which, in series [1], the “ischemia-induced decrease in the number of normal nerve cells in the hippocampal CA1 region” value was “significantly inhibited” and the “ischemia-induced increase in the number of apoptotic nerve cells in the hippocampal CA1 region” value is “significantly inhibited”. Besides, the “body weight gain versus control group” value in series [5] (14 days) was “no difference”. In addition, the “autopsy findings versus control group” value in series [5] (autopsy after 14 days) was “no difference”. Also, the “general condition and behavior” value in series [5] (observed 14 days) was “no change”.

Source of the values: patent US6342531B1, “Pharmaceutical composition containing a cysteine protease inhibitor for prophylaxis and therapy of brain tissue impairment” (Senju Pharmaceutical Co., Ltd., priority 1998, dated 2002).
